Measurements as given in patent US20240101600A1, “FIBROBLAST GROWTH FACTOR RECEPTOR (FGFR)-TARGETING ANTAGONISTIC SHORT PEPTIDE” (WENZHOU MEDICAL UNIVERSITY, priority 2019, published 2024).
Where no end group is shown, it is not given here.

Key:
[1] = test system: gastric cancer cells SGC-7901; assay: Transwell migration of SGC-7901 cells; format: cell-based; conditions: 24 h
Description: (§1) In vitro anti-tumor activity of a short peptide compound P48 Hela229 (1500 cells/100 μl), B16-F10 (1000 cells/100 μl), NCI-H460 (4000 cells/100 μl) and SGC7901 (4000 cells/100 μl) cells were inoculated in 96-well plates. After incubated overnight adherently, the original medium was replaced with a Dulbecco's modified eagle medium (DMEM) containing 0.1% fetal bovine serum (FBS) or a Roswell Park Memorial Institute 1640 (RPMI-1640) medium containing 0.1% FBS, and culture was continued for 24 h. A mixture of P48 and bFGF, or bFGF alone were added into corresponding wells, and incubated for 48 h; an MTT solution (5 mg/mL) prepared by PBS was added to the cells in each well at 37° C., and treated for 4 h. The MTT was removed by aspiration, 150 μL of DMSO was added to each well, shaking was conducted for 10 min, and an optical density (OD) value was quantified with a microplate reader (SpectraMax M2/M2e, Molecular Devices, Sunnyvale, USA) at a wavelength of 490 nm. The percentage of drug growth inhibition rate was calculated by comparing with the bFGF group. […] The experimental procedure was as follows: 10% FBS-containing medium (500 μl) was added to a lower surface of a transwell insertion chamber, the cells together with the drug were inoculated into an upper chamber, and cultured with a serum-free medium (200 μl). […]

B16-F10 cells = assay: MTT viability, B16-F10 cells; format: cell-based; conditions: 48 h with bFGF
Description: as §1

FGFR1 [2] = assay: Flow cytometry binding of FITC-conjugated P48 to MEF-WT and FGFR1-FGFR2-FRS2a knock-out MEF cells; format: cell-based; conditions: FITC-conjugated P48 1, 10, 100, 1000 nM, 30 min
Description: (§2) Human embryonic kidney cells HEK-293, fibroblasts MEF-WT and Balb/c 3T3 were inoculated into 6-well plates, respectively. After growing adherently overnight, the cells were pretreated with P48 for 10 min or with AZD4547/PD173074/SSR for 2 h, and incubated with bFGF for 15 min. […] The experimental procedure was as follows: MEF-WT and MEFKO (FGFR1-FGFR2-FRS2a) cells (1×10^6 cells/ml) were inoculated in a 35 mm petri dish. After being adhered to the wall of petri dish overnight, the cells were washed with PBS; FITC-conjugated P48 (1, 10, 100 and 1000 nM) was added, and the cells were incubated in an incubator for 30 min. The cells were immobilized with 1% paraformaldehyde in the dark and washed with PBS. An expression level of the FITC was measured at a fluorescence channel 1 (FL-1) (530 nm), with an excitation wavelength of 488 nm. Data analysis was conducted using CellQuest software (Becton Dickinson).

[3] = test system: gastric cancer cells SGC-7901; assay: SGC-7901 transplanted tumor model in BALB/c nude mice; format: in vivo; conditions: intraperitoneal, 32 and 64 mg/kg·d
Description: SGC-7901 cells were injected subcutaneously into the back of BALB/c nude mice. After 10 days, the mice were randomly divided into 4 groups, each with 12 mice, and were administered intraperitoneally. An administration group included a model group (normal saline group), an AZD4547 group (20 mg/kg·d), and a P48 group (32 mg/kg·d, 64 mg/kg·d). The length and width of the tumor were measured using a vernier caliper. The tumor volume was calculated using a formula V=0.52×L×W^2. The weights of the mice were recorded every 3 days, and the tumor size was recorded […]. After 28 days, the nude mice were sacrificed for dissection, and tissue samples were taken out for further study. The results are shown in FIG. 6, wherein A represents the weight change of the mice, B represents the volume and size of the tumor, C represents the expression of phosphorylated FLG, FRS2α and ERK1/2 in vivo after P48 treatment, and D represents the expression of Ki67 in vivo after P48 treatment.

PLCy = assay: Western blot of FGFR1 downstream protein PLCy in MEF-WT cells; format: cell-based; conditions: bFGF stimulation 15 min
Description: as §2

FGFR1 [4] = molecular target: T1, FGFR1 (Mus musculus, UniProt P16092); assay: Western blot of FGFR1 signaling pathway in melanoma B16-F10; format: cell-based; set-up: endogenous in cells; conditions: bFGF stimulation
T1 sequence (P16092 22-822): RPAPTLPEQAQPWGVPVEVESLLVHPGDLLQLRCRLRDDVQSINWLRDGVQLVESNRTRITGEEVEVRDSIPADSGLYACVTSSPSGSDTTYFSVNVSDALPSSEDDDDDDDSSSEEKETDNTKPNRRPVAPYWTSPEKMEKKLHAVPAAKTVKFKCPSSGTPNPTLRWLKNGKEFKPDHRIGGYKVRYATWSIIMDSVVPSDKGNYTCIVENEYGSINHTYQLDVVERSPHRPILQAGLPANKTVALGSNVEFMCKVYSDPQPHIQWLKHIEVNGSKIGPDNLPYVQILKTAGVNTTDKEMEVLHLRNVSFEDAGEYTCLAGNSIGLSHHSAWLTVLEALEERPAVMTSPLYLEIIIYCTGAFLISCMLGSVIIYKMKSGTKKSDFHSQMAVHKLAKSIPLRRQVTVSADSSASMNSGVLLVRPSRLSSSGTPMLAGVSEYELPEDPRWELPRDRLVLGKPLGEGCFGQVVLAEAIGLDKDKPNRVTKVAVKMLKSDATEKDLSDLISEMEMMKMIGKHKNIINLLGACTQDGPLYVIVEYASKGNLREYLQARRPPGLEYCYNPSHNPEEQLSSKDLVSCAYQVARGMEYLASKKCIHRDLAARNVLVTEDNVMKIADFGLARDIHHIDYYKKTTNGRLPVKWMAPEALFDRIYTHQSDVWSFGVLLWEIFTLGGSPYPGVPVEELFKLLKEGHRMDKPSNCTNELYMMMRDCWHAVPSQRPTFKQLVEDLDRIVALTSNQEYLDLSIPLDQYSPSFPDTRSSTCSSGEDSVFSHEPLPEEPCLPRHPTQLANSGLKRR
Description: (§3) Cervical cancer cells Hela229, melanoma B16-F10, lung cancer cells NCI-H460, gastric cancer cells SGC-7901 and MGC-803 were inoculated into 6-well plates, respectively. After growing adherently overnight, the cells were pretreated with P48 for 10 min or with AZD4547/SSR for 2 h, and incubated with bFGF for 15 min or with KGF for 20 min.

EGFR = molecular target: T2, EGFR (Homo sapiens, UniProt P00533, DEL746-750); assay: Western blot of EGFR and ERK1/2 in PC-9 cells under EGF stimulation; format: cell-based; conditions: EGF 10 min
T2 construct: endogenous in cells; host or cells: PC-9

FGFR1 [5] = molecular target: T3, FGFR1 (Homo sapiens, UniProt P11362); assay: Western blot of FGFR1 signaling pathway in gastric cancer cells SGC-7901 and MGC-803; format: cell-based; set-up: endogenous in cells; host or cells: Hela229; NCI-H460; SGC-7901; MGC-803
T3 sequence (P11362 22-822): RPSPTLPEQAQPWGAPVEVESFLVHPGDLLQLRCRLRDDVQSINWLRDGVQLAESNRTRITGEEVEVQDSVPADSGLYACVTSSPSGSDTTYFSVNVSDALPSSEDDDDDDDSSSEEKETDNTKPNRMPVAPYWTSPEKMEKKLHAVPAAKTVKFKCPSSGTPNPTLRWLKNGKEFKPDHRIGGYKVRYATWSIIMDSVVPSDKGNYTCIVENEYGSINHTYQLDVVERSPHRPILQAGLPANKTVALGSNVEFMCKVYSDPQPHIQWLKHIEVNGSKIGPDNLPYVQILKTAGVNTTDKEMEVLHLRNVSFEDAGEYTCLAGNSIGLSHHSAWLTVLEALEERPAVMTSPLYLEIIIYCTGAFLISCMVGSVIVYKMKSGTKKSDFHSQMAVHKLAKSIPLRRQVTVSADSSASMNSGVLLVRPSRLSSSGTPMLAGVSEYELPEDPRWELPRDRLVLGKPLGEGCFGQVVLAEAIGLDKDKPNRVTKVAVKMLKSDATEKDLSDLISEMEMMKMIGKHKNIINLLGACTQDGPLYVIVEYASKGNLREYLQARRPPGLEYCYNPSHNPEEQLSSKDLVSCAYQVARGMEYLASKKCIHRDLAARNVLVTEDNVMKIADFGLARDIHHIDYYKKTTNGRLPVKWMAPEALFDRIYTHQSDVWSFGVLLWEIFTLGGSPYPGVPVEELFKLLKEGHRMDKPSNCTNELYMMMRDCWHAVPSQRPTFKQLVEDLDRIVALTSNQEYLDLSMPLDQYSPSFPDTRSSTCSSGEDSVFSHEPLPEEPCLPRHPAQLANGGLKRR
Description: as §3

FGFR1 [6] = molecular target: T3, FGFR1; assay: Western blot of FGFR1 signaling pathway in lung cancer cells NCI-H460; format: cell-based; set-up: endogenous in cells; host or cells: Hela229; NCI-H460; SGC-7901; MGC-803; conditions: bFGF stimulation
Description: as §3

FGFR1 [7] = molecular target: T1, FGFR1; assay: Western blot of bFGF-induced FGFR1 activation in MEF-WT fibroblasts; format: cell-based; set-up: endogenous in cells; host or cells: MEF-WT; Balb/c 3T3; conditions: P48 pretreatment 10 min, bFGF 15 min
Description: as §2

[8] = gastric cancer cell lines, bFGF stimulation

## SPPRYPGGGS-NH2 [P48, Ser-Pro-Pro-Arg-Tyr-Pro-Gly-Gly-Gly-Ser-NH2]
[1]
  inhibition of cell migration: can inhibit cell migration in a concentration-dependent manner
B16-F10 cells
  inhibition of cancer cell viability: can significantly inhibit the viability of cancer cells
FGFR1 [2]
  binding to wild-type versus FGFR1-FGFR2-FRS2a knock-out MEF cells: only has a binding effect on the wild-type MEF cells
[3]; 28 days
  inhibition of FGFR1 signaling pathways in tumors (phosphorylated FLG, FRS2a, ERK1/2): desirable inhibitory effect
  inhibition of tumor growth: can significantly inhibit the growth of gastric cancer cells SGC-7901
[3]; compared with control group
  inhibition of Ki67 expression (immunohistochemistry): can inhibit the expression of Ki67 in a concentration-dependent manner
PLCy
  inhibitory effect on downstream PLCy: no significant inhibitory effect
FGFR1 [4]
  inhibition of FGFR1 signaling pathway: can inhibit the FGFR1 signaling pathway of cervical cancer, melanoma, lung cancer and gastric cancer in a concentration-dependent manner
EGFR
  effect on EGF stimulation (phosphorylated EGFR and ERK1/2): has no effect
FGFR1 [5]; SGC-7901, KGF 20 min
  effect on KGF stimulation: has no effect
FGFR1 [5]; SGC-7901, aFGF 15 min
  effect on aFGF stimulation: has no effect
FGFR1 [5]; SGC-7901, bFGF 15 min
  inhibition of FGFR1 activation under bFGF stimulation: can only inhibit the activation of FGFR1 induced by bFGF
FGFR1 [5]; gastric cancer (SGC-7901, MGC-803), bFGF stimulation
  inhibition of FGFR1 signaling pathway: can inhibit the FGFR1 signaling pathway of cervical cancer, melanoma, lung cancer and gastric cancer in a concentration-dependent manner
FGFR1 [5]; [8]
  activity on FGFR1 signaling compared with AZD4547: weaker than that of AZD4547
  inhibitory effect on FGFR1 signaling compared with SSR: comparable to that of the SSR
FGFR1 [6]
  inhibition of FGFR1 signaling pathway: can inhibit the FGFR1 signaling pathway of cervical cancer, melanoma, lung cancer and gastric cancer in a concentration-dependent manner
FGFR1 [7]
  inhibition of FGFR1 activation induced by bFGF: can inhibit activation of FGFR1 induced by bFGF in a concentration-dependent manner
